Paper PMC12079500, “An Intracellular Peptide Library Screening Platform Identifies Irreversible Covalent Transcription Factor Inhibitors” (Advanced Science, 2025)
Values joined by “and” are separate entries in the source; they are usually repeats but may differ in a detail not shown here. Identical values can stand only once. Like-named read-outs stand apart in the source and are kept apart here. Where a SMILES comes first, the peptide text is derived from it. Bridges are numbered along the chain shown (N, C = ends). The star is where a group is joined. 5FAM = O=C1OC2(c3ccc(O)cc3Oc3cc(O)ccc32)c2ccc(C(=O)*)cc21

Experiments:
[1] = target: T1, cJun (Homo sapiens, UniProt P05412); assay: ESI-MS of HW31 + cJun mixture; type: binding; design: LC-MS analysis of the cJun bZIP domain; made in house; settings: HW31 50 µM + cJun 50 µM, oxidising conditions; reduced back by TCEP
T1 sequence (P05412 252-315 limits assumed): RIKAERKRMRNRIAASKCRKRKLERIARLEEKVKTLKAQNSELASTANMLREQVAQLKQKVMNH
Method: A mixture of HW31 (50 µM) and cJun (50 µM, Figure S4, Supporting Information) was first shown to form a disulphide‐bridged complex by ESI‐MS, which could be reduced back to the separate species by the addition of TCEP (Figure S5, Supporting Information). Further, an Alphafold 3 prediction of HW31 (prediction without lactam bridge) bound to cJun indicates the complex forms the predicted coiled coil interaction with the formation of a disulphide between cJun C269 and HW31 C2 (Figure 3A; Figure S6, Supporting Information).^[ [17] ^] The interaction was next characterized using circular dichroism (CD) experiments in both oxidizing and reducing conditions. The mixing of HW31 and cJun in both conditions provided a clear increase in helicity, indicative of a binding interaction (Figure S7, Supporting Information). The measured HW31‐cJun heterodimer complex was ≈10% more helical in the oxidized buffer relative to the reduced. […] Analytical size exclusion chromatography further validated HW31/cJun binding and confirmed the formation of a 1:1 stoichiometric complex (Figure S8, Supporting Information).

[2] = target: T2, cJun/TRE DNA (Homo sapiens, UniProt P05412); assay: CD cJun/TRE DNA antagonism assay (TRE DNA signal at 281 nm); type: biochemical; settings: for IC50: pH 7.4, 30 min equilibration, triplicate data, Hill fit, error one SD; for cJun-TRE DNA IC50, fold improved (oxidised vs reduced): ratio of IC50 reduced / oxidised
T2 construct: LC-MS analysis of the cJun bZIP domain; made in house
T2 sequence (P05412 252-315 limits assumed): as above
Excerpt: CD antagonism experiments were next carried out, as previously described,^[ [13], [18] ^] whereby the structure of a TRE DNA duplex was monitored by following a peak at 281 nm, which shifts upon binding to cJun. The introduction of antagonist to the sample causes the peak to shift back to its unbound signal in a dose‐dependent manner as the cJun is sequestered, leaving unbound DNA in its original structure (Figure S9, Supporting Information). As there is no protein absorbance in this region of the CD spectrum, this measures DNA structure only and produces a simple readout of the proportion of free/cJun‐bound DNA at different antagonist concentrations. By fitting these plots to a Hill equation (OriginPro), IC50 values for HW1, HW29, and HW31 were determined in both reducing and oxidizing conditions (Table S1, Supporting Information; Figure 3C).
(§1) Circular dichroism (CD): An Applied Photophysics Chirascan was used for CD measurements, with a 200 µL sample in a 1 mm path length CD cell. Protein/DNA samples were suspended in 20 mM potassium phosphate,150 mM potassium fluoride at pH 7.4 with or without 5 mM TCEP. cJun was added to TRE DNA (5’-[…], Merck) before addition of antagonist peptide and these samples were equilibrated for 30 minutes before measurement.^[13] For full spectra, three scans between 190 and 260 nm (265-320 nm for DNA binding experiments) were collected with a bandwidth of 1 nm and data sampled at a rate of 0.5 s^-1. These scans were averaged and converted to molar residue ellipticities (MRE). Thermal denaturation experiments were performed by measuring the ellipticity at 222 nm over a 1 to 95°C gradient at 1°C increments. Post-melt scans at 20°C confirmed the transitions were reversible as they overlaid within 5% of the pre-melt scan. The resulting thermal denaturation curves were converted to MRE and fitted to a two-state model, derived via modification of the Gibbs–Helmholtz equation to determine the melting temperature (Tm) ^[26].

[3] = target: T1, cJun; assay: CD thermal denaturation of antagonist-cJun heterodimer; type: binding; design: LC-MS analysis of the cJun bZIP domain; made in house; settings: for Antagonist-cJun heterodimer Tm, reduced / Antagonist-cJun heterodimer Tm, oxidised: CD at 222 nm, 1-95 °C, 20 mM potassium phosphate, 150 mM KF; for Antagonist-cJun heterodimer Tm, reduced: pH 7.4, with 5 mM TCEP (reducing); for Antagonist-cJun heterodimer Tm, oxidised: pH 7.4, without TCEP (oxidising), HW31 50 µM + cJun 50 µM; for Antagonist-cJun heterodimer Tm, Δox-red: difference of Tm in oxidising and reducing buffer
Method: as §1

[4] = target: T1, cJun; assay: CD spectra (helicity) of HW31-cJun mixture; type: binding; design: LC-MS analysis of the cJun bZIP domain; made in house; settings: oxidised vs reduced buffer
Method: as §1

[5] = target: cJun; settings: cited from earlier work
Excerpt: We previously developed cJun peptide antagonists using a Transcription Block Survival (TBS) assay (Figure 1B).^[ [13] ^] This intracellular peptide library screening platform moves beyond conventional peptide screening systems by selecting peptides based on their ability to not only bind to the target but to meet the more demanding task of functionally antagonizing it by i) binding and, more importantly, ii) blocking its ability to form protein‐DNA interactions.

[6] = test system: SK-MEL-28 cells; assay: Cell imaging of FAM-peptide uptake; type: cell-based, human; settings: SK-MEL-28, 10 and 30 µM, 6 h, 37 °C, fixed, DAPI counterstain, fluorescence microscopy
Method: Cell imaging: Cells were seeded at 40,000 cells per well in a […] and incubated for 24 hours before treatment with vehicle (1% DMSO in water) or peptide for 6 hours. The media was removed and the cells were washed 3x with PBS. 1 mL of paraformaldehyde (80 mg/mL in PBS) was added and incubated at room temperature for 10 minutes. The paraformaldehyde was removed and fixed cells were washed with 3x PBS. 500 µL of DAPI (1 µg/mL) was then added and incubated at room temperature for 5 minutes following by a 3x PBS wash. Cells were imaged using an Evos FL digital inverted fluorescence microscope using brightfield and both GFP (for the FAM label) and DAPI fluorescence filters.

[7] = oxidising buffer (no TCEP), read-out: cJun-TRE DNA IC50, oxidised
[8] = reducing buffer (5 mM TCEP), read-out: cJun-TRE DNA IC50, reduced

Compound	Disulphide formation with cJun [1]	IC50 [2, 7]	cJun-TRE DNA IC50, fold improved (oxidised vs reduced) [2]	IC50 [2, 8]	Antagonist-cJun heterodimer Tm, reduced [3]	Antagonist-cJun heterodimer Tm, oxidised [3]	Antagonist-cJun heterodimer Tm, Δox-red [3]	Increase in helicity of the HW31-cJun heterodimer complex in oxidized buffer relative to reduced [4]	Kd ([5]; read-out: Affinity for cJun)	Kd ([5]; read-out: Previously determined affinity for cJun)	Cellular uptake (FAM fluorescence within cells) [6]
CC[C@H](C)[C@H](NC(=O)[C@H](CCC(=O)O)NC(=O)[C@H](CCCCN)NC(=O)[C@H](CCCNC(=N)N)NC(=O)[C@H](CC(C)C)NC(=O)[C@H](C)NC(=O)[C@H](Cc1ccc(O)cc1)NC(=O)[C@H](CC(N)=O)NC(=O)[C@H](CCCNC(=N)N)NC(=O)[C@H](CCC(=O)O)NC(=O)[C@H](CCC(=O)O)NC(=O)[C@H](CC(C)C)NC(=O)[C@H](CCC(N)=O)NC(=O)[C@H](CCC(=O)O)NC(=O)[C@@H](NC(=O)[C@H](CCC(=O)O)NC(=O)[C@H](CCC(=O)O)NC(=O)[C@H](CCC(=O)O)NC(=O)[C@H](CC(C)C)NC(=O)[C@@H](NC(=O)[C@H](CC(=O)O)NC(=O)[C@H](CCC(=O)O)NC(=O)[C@H](CCC(=O)O)NC(=O)[C@@H](NC(=O)[C@@H](NC(=O)[C@H](CC(C)C)NC(=O)[C@H](CCC(=O)O)NC(=O)[C@H](CCC(=O)O)NC(=O)[C@H](CS)NC(=O)[C@H](CCC(=O)O)NC(C)=O)C(C)C)C(C)C)C(C)C)[C@@H](C)CC)C(=O)N[C@H]1CCCCNC(=O)C[C@@H](C(=O)N[C@@H](CCC(N)=O)C(N)=O)NC(=O)[C@H](CCC(N)=O)NC(=O)[C@H](CC(C)C)NC(=O)[C@H](CC(=O)O)NC1=O [HW31] (Ac-ECEELVVEEDVLEEEIEQLEERNYALRKEIKDLQDQ-NH2; lactam 31-35)	covalent attachment via a disulphide	12.1 ± 0.3 µM	4	48.3 ± 1.8 µM	66.6 °C and 67 °C	81.2 °C and 81 °C	14.6 °C and 14 °C	≈ 10%			
Ac-LEQRAEELARENEELEKEAEELVVEEDVLEEEIEQLEERNYALRKEIEDLQKQLEKL-NH2 [HW1, reference compound]		11.8 ± 0.3 µM	1	13.8 ± 0.3 µM	73 °C	70 °C	-3 °C		0.00021 µM		
CC[C@H](C)[C@H](NC(=O)[C@H](CCC(=O)O)NC(=O)[C@H](CCCCN)NC(=O)[C@H](CCCNC(=N)N)NC(=O)[C@H](CC(C)C)NC(=O)[C@H](C)NC(=O)[C@H](Cc1ccc(O)cc1)NC(=O)[C@H](CC(N)=O)NC(=O)[C@H](CCCNC(=N)N)NC(=O)[C@H](CCC(=O)O)NC(=O)[C@H](CCC(=O)O)NC(=O)[C@H](CC(C)C)NC(=O)[C@H](CCC(N)=O)NC(=O)[C@H](CCC(=O)O)NC(=O)[C@@H](NC(=O)[C@H](CCC(=O)O)NC(=O)[C@H](CCC(=O)O)NC(=O)[C@H](CCC(=O)O)NC(=O)[C@H](CC(C)C)NC(=O)[C@@H](NC(=O)[C@H](CC(=O)O)NC(=O)[C@H](CCC(=O)O)NC(=O)[C@H](CCC(=O)O)NC(=O)[C@@H](NC(=O)[C@@H](NC(=O)[C@H](CC(C)C)NC(=O)[C@H](CCC(=O)O)NC(=O)[C@H](CCC(=O)O)NC(=O)[C@H](C)NC(=O)[C@H](CCC(=O)O)NC(C)=O)C(C)C)C(C)C)C(C)C)[C@@H](C)CC)C(=O)N[C@H]1CCCCNC(=O)C[C@@H](C(=O)N[C@@H](CCC(N)=O)C(N)=O)NC(=O)[C@H](CCC(N)=O)NC(=O)[C@H](CC(C)C)NC(=O)[C@H](CC(=O)O)NC1=O [HW29, reference compound] (Ac-EAEELVVEEDVLEEEIEQLEERNYALRKEIKDLQDQ-NH2; lactam 31-35)			1		68 °C	66 °C	-2 °C			0.087 ± 0.017 µM	
CC(C)[C@H](NC(=O)[C@H](CCCCN)NC(=O)[C@H](CCCNC(=N)N)NC(=O)[C@H](CCCCN)NC(=O)[C@H](CCCCN)NC(=O)[C@H](CCCCN)NC(=O)[C@@H]1CCCN1C(=O)c1ccc2c(c1)C(=O)OC21c2ccc(O)cc2Oc2cc(O)ccc21)C(=O)N[C@@H](Cc1ccc(O)cc1)C(=O)NCC(=O)N[C@@H](CCCNC(=N)N)C(=O)N[C@@H](CCCCN)C(=O)N[C@@H](CCCCN)C(=O)N[C@@H](CCCNC(=N)N)C(=O)N[C@@H](CCCNC(=N)N)C(=O)N[C@@H](CCC(N)=O)C(=O)N[C@@H](CCCNC(=N)N)C(=O)N[C@@H](CCCNC(=N)N)C(=O)N[C@@H](CCCNC(=N)N)C(N)=O [FAM-NLSTAT, reference compound] (5FAM-PKKKRKVYGRKKRRQRRR-NH2)											FAM fluorescence was observed within the cells
